# Target: T1, EGFR (Homo sapiens, UniProt P00533)
# T1 construct: Add 7 ug A431 cell lysate per well (EGFR source); endogenous in cells; host or cells: A431
# Assay: EGFR ELISA assay (in vitro kinase activity, EGFR captured from A431 cell lysate)
# Assay type: biochemical
# Parameters: concentration or dose not given beside the values
# Outline: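 EGFR from A431 lysate was captured on anti-EGFR antibody-coated plates and preincubated with compounds for 30 min. Autophosphorylation ran 5 min with 3 uM ATP and 5 mM MnCl2 (final), stopped with 20 mM EDTA. Phosphotyrosine was detected by anti-pTyr ELISA with ABTS/H2O2, read at 410 nm.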
# T1 sequence (P00533 25-1210): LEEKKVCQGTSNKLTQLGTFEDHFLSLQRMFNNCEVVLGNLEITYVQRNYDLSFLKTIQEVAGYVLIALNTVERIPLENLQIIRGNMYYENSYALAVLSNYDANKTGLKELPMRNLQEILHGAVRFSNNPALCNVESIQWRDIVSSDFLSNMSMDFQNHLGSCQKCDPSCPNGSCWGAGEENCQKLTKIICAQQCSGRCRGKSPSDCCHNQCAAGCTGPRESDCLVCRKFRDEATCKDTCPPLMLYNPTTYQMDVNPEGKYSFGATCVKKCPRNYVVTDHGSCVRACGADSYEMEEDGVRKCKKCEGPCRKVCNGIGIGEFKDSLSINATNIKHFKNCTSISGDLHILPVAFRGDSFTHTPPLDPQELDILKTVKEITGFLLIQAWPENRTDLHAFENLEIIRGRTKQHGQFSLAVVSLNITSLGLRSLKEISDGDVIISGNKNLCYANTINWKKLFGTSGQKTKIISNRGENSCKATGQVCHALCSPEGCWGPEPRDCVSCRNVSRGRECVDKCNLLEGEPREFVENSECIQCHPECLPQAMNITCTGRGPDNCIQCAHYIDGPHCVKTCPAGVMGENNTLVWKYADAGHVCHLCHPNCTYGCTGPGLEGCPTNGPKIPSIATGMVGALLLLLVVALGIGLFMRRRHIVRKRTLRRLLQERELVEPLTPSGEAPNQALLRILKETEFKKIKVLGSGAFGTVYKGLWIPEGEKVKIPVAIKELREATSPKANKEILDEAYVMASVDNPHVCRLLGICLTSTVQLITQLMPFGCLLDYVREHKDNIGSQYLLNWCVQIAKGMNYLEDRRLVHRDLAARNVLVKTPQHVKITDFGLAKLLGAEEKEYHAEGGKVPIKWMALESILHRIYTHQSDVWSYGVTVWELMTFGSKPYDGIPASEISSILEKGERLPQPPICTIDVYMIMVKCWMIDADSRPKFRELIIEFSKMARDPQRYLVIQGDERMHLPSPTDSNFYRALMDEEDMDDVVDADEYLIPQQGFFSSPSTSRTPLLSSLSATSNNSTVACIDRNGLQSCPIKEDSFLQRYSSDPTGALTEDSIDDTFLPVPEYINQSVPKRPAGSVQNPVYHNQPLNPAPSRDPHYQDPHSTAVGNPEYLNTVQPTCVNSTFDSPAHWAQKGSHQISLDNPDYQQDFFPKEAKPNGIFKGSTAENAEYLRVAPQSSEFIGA
row,Structure (SMILES),Biochem EGFR %Inhibition
1,CNS(=O)(=O)c1ccc2c(c1)C(=Cc1ccc([N+](=O)[O-])o1)C(=O)N2 [10718/D11],5.4%
2,CC(C)(C)c1cc(C=C2C(=O)Nc3ccc(CCCl)cc32)cc(Cl)c1OCc1ccccc1 [10732/G10],-38.2%
3,CC(C)(C)c1cc(C=C2C(=O)Nc3ccc(I)cc32)cc(C(C)(C)C)c1OCc1ccccc1 [10733/B05],26.7%
4,Cc1c(Br)ccc2c1C(=Cc1cc(C(C)(C)C)c(OCc3ccccc3)c(C(C)(C)C)c1)C(=O)N2 [10733/C05],17.2%
5,COc1c(Br)cc(C=C2C(=O)Nc3ccc(S(=O)(=O)Nc4ccc(C(F)(F)F)cc4)cc32)cc1C(C)(C)C [10732/E07],-8.5%
6,CC(C)(C)c1cc(C=C2C(=O)Nc3ccc(S(=O)(=O)Nc4ccc(C(F)(F)F)cc4)cc32)cc(Br)c1OCc1ccccc1 [10732/E08],-21.7%
7,COc1cc(Br)c(O)c(C=C2C(=O)Nc3ccc(S(=O)(=O)Nc4ccc(C(F)(F)F)cc4)cc32)c1 [10718/E03],50.4%
8,COc1c(Br)cc(C=C2C(=O)Nc3ccc(CCCl)cc32)cc1C(C)(C)C [10732/G07],-21.9%
9,COc1c(O)ccc(C=C2C(=O)Nc3ccc(I)cc32)c1[N+](=O)[O-] [10733/B11],12.5%
10,COc1cc(Br)cc(C=C2C(=O)Nc3c(Br)cc(Br)cc32)c1O [10733/A08],19.5%
11,COc1cc(Br)cc(C=C2C(=O)Nc3ccc(I)cc32)c1O [10733/B08],32.5%
12,CNS(=O)(=O)c1ccc2c(c1)C(=Cc1cc([N+](=O)[O-])c(OC)c(C(C)(C)C)c1)C(=O)N2 [10733/D03],11.2%
13,O=C1Nc2c(Br)cc(Br)cc2C1=Cc1cc(Br)ccc1O [10733/A09],25.9%
14,Cc1c(Br)ccc2c1C(=Cc1cc(Br)ccc1O)C(=O)N2 [10733/C09],46.0%
15,CC(C)(C)c1cc(C=C2C(=O)Nc3ccc(S(=O)(=O)N4CCOCC4)cc32)cc(Br)c1OCc1ccccc1 [10732/F08],-11.9%
16,CNS(=O)(=O)c1ccc2c(c1)C(=Cc1cc(C(C)(C)C)c(OC)c(C(C)(C)C)c1)C(=O)N2 [10733/D04],19.9%
17,CC(C)(C)c1cc(C=C2C(=O)Nc3c(Br)cc(Br)cc32)cc(C(C)(C)C)c1OCc1ccccc1 [10733/A05],55.2%
18,CC(C)(C)c1cc(C=C2C(=O)Nc3ccc(S(=O)(=O)Nc4ccc(C(F)(F)F)cc4)cc32)ccc1OCc1ccccc1 [10732/E06],-11.0%
19,CC(C)c1cc(C=C2C(=O)Nc3ccc(CCCl)cc32)cc(C(C)C)c1Oc1ccccc1 [10732/G04],8.0%
20,COc1c(C(C)(C)C)cc(C=C2C(=O)Nc3c(Br)cc(Br)cc32)cc1C(C)(C)C [10733/A04],32.8%
21,CNS(=O)(=O)c1ccc2c(c1)C(=Cc1cc(Br)ccc1O)C(=O)N2 [10733/D09],48.3%
22,CC(C)(C)c1cc(C=C2C(=O)Nc3ccc(CCCl)cc32)cc(Br)c1OCc1ccccc1 [10732/G08],-20.4%
23,Cc1cc(C=C2C(=O)Nc3ccc(I)cc32)cc(C)c1OCc1ccccc1 [10733/B07],32.7%
24,CNS(=O)(=O)c1ccc2c(c1)C(=Cc1ccco1)C(=O)N2 [10718/D10],12.3%

row,Structure (SMILES),Biochem EGFR %Inhibition
1,COc1c(Br)cc(C=C2C(=O)Nc3ccc(S(=O)(=O)N4CCOCC4)cc32)cc1C(C)(C)C [10732/F07],-12.5%
2,O=C1Nc2c(Br)cc(Br)cc2C1=Cc1cc([N+](=O)[O-])ccc1O [10733/A10],14.2%
3,COc1c(C(C)C)cc(C=C2C(=O)Nc3ccc(S(=O)(=O)Nc4ccc(C(F)(F)F)cc4)cc32)cc1C(C)C [10732/E03],-1.6%
4,COc1c(C(C)(C)C)cc(C=C2C(=O)Nc3ccc(I)cc32)cc1C(C)(C)C [10733/B04],28.5%
5,COc1c([N+](=O)[O-])cc(C=C2C(=O)Nc3ccc(Br)c(C)c32)cc1C(C)(C)C [10733/C03],14.4%
6,COc1c([N+](=O)[O-])cc(C=C2C(=O)Nc3ccc(I)cc32)cc1C(C)(C)C [10733/B03],14.4%
7,COc1c(Cl)cc(C=C2C(=O)Nc3ccc(CCCl)cc32)cc1C(C)(C)C [10732/G09],-34.8%
8,COc1c(O)ccc(C=C2C(=O)Nc3c(Br)cc(Br)cc32)c1[N+](=O)[O-] [10733/A11],23.0%
9,CC(C)(C)c1cc(C=C2C(=O)Nc3c(Br)cc(Br)cc32)cc(I)c1OCc1ccccc1 [10733/A02],25.9%
10,Cc1c(Br)ccc2c1C(=Cc1cc([N+](=O)[O-])ccc1O)C(=O)N2 [10733/C10],36.0%
11,CNS(=O)(=O)c1ccc2c(c1)C(=Cc1cc(C(C)(C)C)c(OCc3ccccc3)c(C(C)(C)C)c1)C(=O)N2 [10733/D05],10.6%
12,COc1c(C(C)C)cc(C=C2C(=O)Nc3ccc(S(=O)(=O)N4CCOCC4)cc32)cc1C(C)C [10732/F03],54.1%
13,CC(C)(C)c1cc(C=C2C(=O)Nc3ccc(I)cc32)cc(I)c1OCc1ccccc1 [10733/B02],31.6%
14,COc1c(Cl)cc(C=C2C(=O)Nc3ccc(S(=O)(=O)Nc4ccc(C(F)(F)F)cc4)cc32)cc1C(C)(C)C [10732/E09],-7.2%
15,COc1cc(Br)cc(C=C2C(=O)Nc3ccc(Br)c(C)c32)c1O [10733/C08],65.8%
16,CC(C)(C)c1cc(C=C2C(=O)Nc3ccc(S(=O)(=O)Nc4ccc(C(F)(F)F)cc4)cc32)cc(I)c1OCc1ccccc1 [10733/E02],-1.3%
17,COc1c(O)ccc(C=C2C(=O)Nc3ccc(Br)c(C)c32)c1[N+](=O)[O-] [10733/C11],15.8%
18,CC(C)c1cc(C=C2C(=O)Nc3ccc(S(=O)(=O)Nc4ccc(C(F)(F)F)cc4)cc32)cc(C(C)C)c1Oc1ccccc1 [10732/E04],-10.6%
19,O=C1Nc2ccc(I)cc2C1=Cc1cc(Br)ccc1O [10733/B09],21.1%
20,CNS(=O)(=O)c1ccc2c(c1)C(=Cc1cc(I)c(OC)c(C(C)(C)C)c1)C(=O)N2 [10732/D11],-13.4%
21,CC(C)(C)c1cc(C=C2C(=O)Nc3ccc(S(=O)(=O)N4CCOCC4)cc32)ccc1OCc1ccccc1 [10732/F06],-8.0%
22,Cc1cc(C=C2C(=O)Nc3c(Br)cc(Br)cc32)cc(C)c1OCc1ccccc1 [10733/A07],28.5%
23,Cc1c(Br)ccc2c1C(=Cc1cc(I)c(OCc3ccccc3)c(C(C)(C)C)c1)C(=O)N2 [10733/C02],31.6%
24,COc1c(C(C)(C)C)cc(C=C2C(=O)Nc3ccc(Br)c(C)c32)cc1C(C)(C)C [10733/C04],29.0%

row,Structure (SMILES),Biochem EGFR %Inhibition
1,O=C1Nc2ccc(I)cc2C1=Cc1cc([N+](=O)[O-])ccc1O [10733/B10],11.8%
2,COc1c(C)cc(C=C2C(=O)Nc3c(Br)cc(Br)cc32)cc1C [10733/A06],45.1%
3,CNS(=O)(=O)c1ccc2c(c1)C(=Cc1ccc(O)c(OC)c1[N+](=O)[O-])C(=O)N2 [10733/D11],33.7%
4,CNS(=O)(=O)c1ccc2c(c1)C(=Cc1cc([N+](=O)[O-])ccc1O)C(=O)N2 [10733/D10],46.8%
5,O=C1Nc2ccc(CCCl)cc2C1=CC(c1cccs1)C(F)(F)F (stereo not shown) [10732/G02],-0.7%
6,COc1ccc(C=C2C(=O)Nc3ccc(CCCl)cc32)cc1C(C)(C)C [10732/G05],3.8%
7,CNS(=O)(=O)c1ccc2c(c1)C(=Cc1cc(C)c(OC)c(C)c1)C(=O)N2 [10733/D06],30.8%
8,O=C1Nc2ccc(S(=O)(=O)N3CCOCC3)cc2C1=CC(c1cccs1)C(F)(F)F (stereo not shown) [10732/F02],23.1%
9,COc1ccc(C=C2C(=O)Nc3ccc(S(=O)(=O)Nc4ccc(C(F)(F)F)cc4)cc32)cc1C(C)(C)C [10732/E05],-17.0%
10,COc1c(I)cc(C=C2C(=O)Nc3ccc(S(=O)(=O)N4CCOCC4)cc32)cc1C(C)(C)C [10732/F11],-21.5%
11,O=C1Nc2ccc(S(=O)(=O)Nc3ccc(C(F)(F)F)cc3)cc2C1=CC(c1cccs1)C(F)(F)F (stereo not shown) [10732/E02],0.8%
12,COc1c(C(C)C)cc(C=C2C(=O)Nc3ccc(CCCl)cc32)cc1C(C)C [10732/G03],-20.0%
13,CNS(=O)(=O)c1ccc2c(c1)C(=Cc1cc(I)c(OCc3ccccc3)c(C(C)(C)C)c1)C(=O)N2 [10733/D02],12.5%
14,COc1c([N+](=O)[O-])cc(C=C2C(=O)Nc3c(Br)cc(Br)cc32)cc1C(C)(C)C [10733/A03],33.6%
15,CNS(=O)(=O)c1ccc2c(c1)C(=Cc1c(C)[nH]c(C(=O)OC)c1C(=O)OC)C(=O)N2 [10718/D07],5.6%
16,CC(C)c1cc(C=C2C(=O)Nc3ccc(S(=O)(=O)N4CCOCC4)cc32)cc(C(C)C)c1Oc1ccccc1 [10732/F04],-0.1%
17,COc1cccc(O)c1C=C1C(=O)Nc2c(Br)cc(Br)cc21 [10717/A10],8.1%
18,CCOC(=O)c1c(C)[nH]c(C=C2C(=O)Nc3ccc(S(=O)(=O)Nc4ccc(C(F)(F)F)cc4)cc32)c1C [10718/E02],1.0%
19,CNS(=O)(=O)c1ccc2c(c1)C(=Cc1ccc(O)c(C)c1O)C(=O)N2 [10718/D09],6.0%
20,COc1c(C)cc(C=C2C(=O)Nc3ccc(I)cc32)cc1C [10733/B06],43.6%
21,CNS(=O)(=O)c1ccc2c(c1)C(=Cc1ccc(Cl)c([N+](=O)[O-])c1)C(=O)N2 [10718/D08],3.0%
22,COc1c(Cl)cc(C=C2C(=O)Nc3ccc(S(=O)(=O)N4CCOCC4)cc32)cc1C(C)(C)C [10732/F09],-13.4%

# — patent EP1247803A2, “Indolinone compounds suitable for modulation of protein kinases” (Sugen, Inc., priority 1996, dated 1998)
